Results published in patent US6867186B2, “Cell-permeable protein inhibitors of calpain” (New England Medical Center Hospital, priority 1997, dated 2005).
“Also recorded” adds a separate entry of the source. Where two headings read alike, the source gives them in different places.

Tests used:
μ-calpain = molecular target: T1, μ-calpain (Sus scrofa, UniProt P35750); test: Fluorometric calpain assay, suc-LLVY-AMC substrate; assay type: biochemical, porcine
T1 construct: pure p-calpain (porcine erythrocyte) was obtained from Chemicon; purchased Chemicon; host or cells: porcine erythrocyte
T1 sequence (P35750 1-714): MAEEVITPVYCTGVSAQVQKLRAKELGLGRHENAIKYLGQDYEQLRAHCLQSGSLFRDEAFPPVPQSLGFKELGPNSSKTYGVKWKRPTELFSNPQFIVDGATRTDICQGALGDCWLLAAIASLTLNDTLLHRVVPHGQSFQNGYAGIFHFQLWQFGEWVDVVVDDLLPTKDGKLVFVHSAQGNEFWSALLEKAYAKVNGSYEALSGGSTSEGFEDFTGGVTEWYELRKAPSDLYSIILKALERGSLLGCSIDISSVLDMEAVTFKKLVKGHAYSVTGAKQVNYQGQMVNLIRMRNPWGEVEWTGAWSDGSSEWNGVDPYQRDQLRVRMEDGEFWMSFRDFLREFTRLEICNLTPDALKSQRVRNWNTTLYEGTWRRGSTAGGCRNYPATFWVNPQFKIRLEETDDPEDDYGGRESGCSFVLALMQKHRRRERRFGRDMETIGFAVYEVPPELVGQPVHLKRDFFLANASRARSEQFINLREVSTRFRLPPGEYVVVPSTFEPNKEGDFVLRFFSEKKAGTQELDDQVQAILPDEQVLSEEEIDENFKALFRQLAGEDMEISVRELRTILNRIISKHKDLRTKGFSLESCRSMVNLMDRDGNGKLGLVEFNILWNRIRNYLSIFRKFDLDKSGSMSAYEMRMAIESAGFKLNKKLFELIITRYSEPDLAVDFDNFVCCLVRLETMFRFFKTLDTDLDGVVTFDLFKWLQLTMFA
T1 sequence (P04574 1-266 partner): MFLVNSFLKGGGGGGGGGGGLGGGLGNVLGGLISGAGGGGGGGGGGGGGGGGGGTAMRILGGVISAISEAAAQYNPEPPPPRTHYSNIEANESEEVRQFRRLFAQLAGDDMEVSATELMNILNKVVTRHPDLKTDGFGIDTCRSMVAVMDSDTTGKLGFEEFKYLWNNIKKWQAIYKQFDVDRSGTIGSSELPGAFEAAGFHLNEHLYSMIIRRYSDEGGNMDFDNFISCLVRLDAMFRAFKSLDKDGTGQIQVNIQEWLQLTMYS
Text: Unless otherwise noted, the materials used in the studies described below were obtained from commercial suppliers. Sepharose 2B was obtained from Pharmacia Biotech (Upsala, Sweden); pure p-calpain (porcine erythrocyte) was obtained from Chemicon; succinyl-LLVY-AMC (SEQ ID NO:7) was obtained from Bachem; A23187 was obtained from LC Labs; human alpha-thrombin was obtained from Hematologic Technologies (Essex Junction, VT); anti-P-selectin antibodies conjugated to phycoerythrin were obtained from Becton Dickinson (San Jose, Calif.); Oregon Green-phalloidin was obtained from Molecular Probes (Eugene, Oreg.). All other chemicals were ACS grade or better and were obtained from Sigma Chemical Company (St. Louis, Mo.).
To assess the ability of calpastat to inhibit calpain activity, a fluorometric calpain assay was performed. The assay determined specific peptidyl hydrolysis of the peptidyl 7-amino bond of suc-LLVY-AMC (SEQ ID NO:7) by calpain.
The assay was performed in a 0.5 ml reaction volume at 37° C. The reaction buffer contained 50 mM KC1, 10 mM Tris-HCl (pH 7.5), 1 mM EDTA, and 1 mM DTT. Two hundred μM suc-LLVY-AMC (SEQ ID NO:7) was added along with 5 mM CaCl2. Calpastat or S-TIPPEY-ala was then added at the given concentrations (FIG. 9). […] The initial rate of AMC production was measured by fluorimetry for the first few minutes. […]

gel filtered platelets = test: Thrombin-induced platelet aggregation (aggregometer); assay type: cell-based, human; settings: for effect on platelet aggregation: thrombin or SFLLR induced
Procedure: In one series of experiments, platelets were purified from […] on a SEPHAROSE 2B column in PIPES buffered saline containing glucose, pre-incubated with 45 μM calpastat or S-TIPPEY-ala for 30 minutes at 37° C., and placed in a cuvette in a BIODATA aggregometer. The aggregometer measures turbidity of the solution by nephlometry (light scatter). Aggregation was induced with thrombin (0.1 to 1 unit/ml) or the thrombin receptor agonist peptide SFLLR (SEQ ID NO:5). […] In contrast, S-TIPPEY-ala had no activity. A version of S-TIPPEYIN lacking the signal sequence similarly had no activity.
In another series of experiments, gel filtered platelets were obtained and tested as follows. Blood from healthy, aspirin-free volunteers was collected by venipuncture into 4% sodium citrate (9:1 v/v, final concentration 0.4%) and centrifuged at 200×g for 20 minutes to obtain platelet rich plasma (PRP). Following incubation with apyrase (4 units/ml for 5 minutes at room temperature), platelets were purified from PRP by gel-filtration at room temperature using a Sepharose 2B column equilibrated in PIPES buffer (25 mM PIPES pH 6.8, 140 mM NaCl, 4 mM KCl, and 0.1% glucose) (Hsu-Lin, et al., J. Biol. Chem. 259:9121-9126, 1984). Final gel filtered platelet concentrations were about 1.5×10^8 cells/ml.
Gel filtered platelets (250 μl aliquots at 1.6×10^8/ml) were incubated with the indicated concentration of calpastat or mutant calpastat-ala for either 20 or 30 minutes at 37° C. in the absence of calcium and stirring. To test peptidyl calpain inhibitors, platelets were preincubated with the indicated concentration of calpeptin, MDL, E64d, DMSO (vehicle control) or NH4Cl (cathepsin control) for 10 minutes at 37° C. Following incubation, platelets were recalcified (CaCl2, 2 mM) and stimulated with 0.05-1.0 unit/ml thrombin, while being stirred (1400 rpm) at 37° C. The sensitivity of platelet preparations to thrombin decreased over the course of a given experiment. The thrombin concentration used was to elicit robust aggregation and varied between 0.05 and 1.0 U/ml. Aggregation was measured using a Bio-Data lumi-aggregometer. Percent inhibition of aggregation was measured at 4 minutes following the onset of aggregation. The initial rate of aggregation during the first 15 seconds for treated vs. untreated samples was used to calculate the IC50 for each inhibitor.

platelets = test: cells; assay type: cell-based; design: reduction in spreading on the glass surface: dose or concentration left out as unconfirmed
Procedure: Platelet activation on surfaces can be inhibited by […] or […] fusion proteins. […] The cellular area of spread platelets was determined by computer assisted image analysis using NIH Image 1.61. […] Percent inhibition of spreading was calculated from the increase in mean cell area for untreated and treated samples vs. unspread DMSO controls.

Row | Substance | inhibition of purified μ-calpain (μ-calpain; up to 10 μM, listed as S-TIPPEY-ala) | IC50 (gel filtered platelets; initial rate during first 15 seconds, NI=no inhibition, peptidyl inhibitors 10 min pre-incubation, read-out: IC50, initial rate of thrombin-induced platelet aggregation) | effect on platelet aggregation (gel filtered platelets) | effect on platelet aggregation (gel filtered platelets; listed as S-TIPPEY-ala) | effect on platelet spreading (platelets; spreading on glass) | IC50 (platelets; spreading on glass, NI=no inhibition, read-out: IC50, inhibition of platelet spreading) | IC50 (μ-calpain; 70 nM enzyme, 37° C., read-out: IC50, μ-calpain cleavage of suc-LLVY-AMC) | concentration of maximal inhibition of platelet aggregation (gel filtered platelets; 30 minutes pre-incubation at 37° C.) | IC50 (gel filtered platelets; no unit printed, read-out: IC50 of calpastat, initial rate of thrombin-induced aggregation) | IC50 (platelets) | inhibition of platelet spreading relative to calpastat-ala control (platelets; 100 μM, 30 minutes pre-incubation) | inhibition of platelet spreading relative to calpastat-ala control (platelets; 100 μM, 60 minutes pre-incubation) | platelets round and unspread on glass (platelets; 100 μM, 1.5 hours) | inhibition of platelet spreading relative to calpastat-ala control (platelets; 100 μM, 90 minutes pre-incubation) | reduction in spreading on the glass surface (platelets; 90 minutes at 37° C.)
1 | AAVALLPAVLLALLAPEKLAERADAAAPEAAELLEKKTGV [Calpastat-ala] | no inhibitory activity; also recorded: no inhibition | > 50 µM | no measurable effect | no activity | minimal inhibition | > 100 µM |  |  |  |  |  |  |  |  | 
2 | H-AAVALLPAVLLALLAPEKLGERDDTIPPEYRELLEKKTGV-OH [Calpastat] |  |  | inhibited platelet aggregation and secretion |  |  |  | 0.05 µM | 45 µM | 50 µM | 35 µM | 0% | 46% | Half | 80% | 70%
